Experimental data taken from patent US20230348453A1, “HALOGENATED-HETEROARYL AND OTHER HETEROCYCLIC KINASE INHIBITORS, AND USES THEREOF” (iOmx Therapeutics AG, priority 2020, published 2023).
Where two headings read alike, the source gives them in different places.

What was measured:
[1] = tested on: MPAL-associated AML cell lines (including MOLM-13 and MV4-11); conditions: chemical inhibition of SIK3; cited from earlier work
[2] = molecular target: ABL1 wt (Homo sapiens (Human), UniProt P00519); type: biochemical
[3] = molecular target: SRC (GST-HIS-tag) (Homo sapiens (Human), UniProt P12931); type: biochemical
[4] = molecular target: T1, SIK3 (Homo sapiens (Human), UniProt Q9Y2K2)
[5] = molecular target: T2, SIK2 (Homo sapiens (Human), UniProt Q9H0K1); conditions: read-out: SIK2 IC50
[6] = molecular target: CSF1R (Homo sapiens (Human), UniProt P07333); type: biochemical; conditions: Kinase Profiler
[7] = molecular target: HCK (Homo sapiens (Human), UniProt P08631); type: biochemical; conditions: Kinase Profiler
[8] = microsomes
[9] = microsomes; remark: listed apart in the source
[10] = mouse, in vivo, po, 30 mg/kg
[11] = in vivo, po, 30 mg/kg
[12] = in vivo; conditions: male, CD1, mouse, po, 30 mg/kg
[13] = in vitro; conditions: human, microsomes
[14] = in vitro; conditions: mouse, microsomes
[15] = in vitro; conditions: dog, MDCK, MDCK-wild type cells
[16] = molecular target: T3, MDR1 (P-gp) (Homo sapiens (Human), UniProt P08183); assay: in vitro; conditions: dog, MDCK-MDR1, MDCK-MDR1 cells
[17] = molecular target: RET (Homo sapiens (Human), UniProt P07949); assay: biochemical; conditions: read-out: RET residual activity (%) at 1 μM, 1 μM
[18] = molecular target: BRAF (Homo sapiens (Human), UniProt P15056); assay: biochemical; conditions: read-out: BRAF residual activity (%) at 1 μM, 1 μM
[19] = Human plasma-protein binding
[20] = Murine plasma protein binding
[21] = Full pharmacokinetic study in mice; conditions: for half-life: male, CD1, mouse, plasma
[22] = Screening PK in mice after 30 mg/kg po
[23] = Human hepatocyte stability; type: in vitro ADME; conditions: human, hepatocytes
[24] = Mouse hepatocyte stability; type: in vitro ADME; conditions: hepatocytes
[25] = tested on: KASUMI-1 cell line; assay: Growth inhibition (GI50) of AML cell lines; type: cell-based; conditions: Homo sapiens, Kasumi 1; pMEF2C-positive; read-out: GI50 against KASUMI-1 cell line
[26] = tested on: MV4-11 cell line; assay: Growth inhibition (GI50) of AML cell lines; type: cell-based; conditions: Homo sapiens, MV4-11; pMEF2C-positive; read-out: GI50 against MV4-11 cell line
[27] = tested on: SIK3 WT and KO MC38 clones; assay: TNF-mediated killing of SIK3 wildtype vs SIK3 knockout MC38 clones (CTG); type: cell-based, mouse; conditions: sub-optimal TNF (<10 ng/ml), 72 h
Procedure: The assay was performed as follows: MC38 SIK3 KO clones were generated using CRISPR. Cells were transfected with RNP complexes (Cas9+gRNA) containing gRNAS targeting SIK3 or non-targeting sequences (control). […] Subsequently, single cell clones were generated by limiting dilution. CRISPR-derived mutations in single clones were detected by next-generation sequencing and analysed using CRISPResso. Knockout and wildtype clones were selected and plated overnight. […] Cells treated with different concentrations of inhibitor but without TNF served as no TNF control. Cell viability was measured by CTG assay.

[28] = female, C57BL/6, mouse, in vivo, 7 days
[29] = molecular target: T2, SIK2; assay: SIK2 kinase inhibition (IC50); conditions: read-out: Kinase: IC50 (nM) SIK2
[30] = molecular target: T1, SIK3; assay: SIK3 kinase inhibition (IC50)
[31] = molecular target: T3, MDR1 (P-gp); assay: MDR1-MDCK effective efflux assay; conditions: dog; for efflux ratio: Table 5.1B
[32] = molecular target: MDR1 pump (P-gp), MDCK-MDR1 cells (Homo sapiens (Human), UniProt P08183); assay: MDR1-MDCK effective efflux assay; conditions: Table 5.1B
[33] = MDCK wild type permeability/efflux; conditions: dog
[34] = Metabolite profile in hepatocytes / in vivo
Source text: Metabolites are identified using high-resolution mass spectrometry.

[35] = tested on: MC38 colorectal carcinoma tumours; assay: MC38 syngeneic mouse tumour model (Example 8.1); conditions: MC38; 40 mg/Kg, BID po
[36] = tested on: HDAC4 phosphorylation in PANC-1 cells; assay: HDAC4 phosphorylation (Meso Scale Discovery assay); conditions: 10 ng/mL rHuTNF, 3 h
[37] = tested on: MC38 murine tumour cell line; assay: TNF-sensitised cell viability assay (CellTiter-Glo); conditions: Mus musculus; for IC50: MC-38, read-out: MC38 IC50 (at 100 ng/mL rMuTNF)
[38] = tested on: HCT116 cells; assay: as above; conditions: Homo sapiens, HCT-116, read-out: HCT116 IC50 (at 10 ng/ml rHuTNF)
[39] = tested on: NFKB activity in PANC-1 cells; assay: TNF-induced NFKB activity (NFKB-dependent luciferase reporter); conditions: 10 ng/ml rHuTNF, PANC-1 reporter cells
[40] = tested on: NFKB activity in MC38 cells; assay: as above; conditions: 10 ng/ml rMuTNF
[41] = tested on: PANC1 cells; assay: TNF-sensitised cell viability assay (CellTiter-Glo); conditions: Homo sapiens, PANC-1, read-out: PANC IC50 (at 100 ng/ml rHuNF)
[42] = total plasma concentration at 30 mg/kg p.o dose, fold of C7 (C7 = 1×)

CSF1R, sequence (P07333 20-972 limits assumed): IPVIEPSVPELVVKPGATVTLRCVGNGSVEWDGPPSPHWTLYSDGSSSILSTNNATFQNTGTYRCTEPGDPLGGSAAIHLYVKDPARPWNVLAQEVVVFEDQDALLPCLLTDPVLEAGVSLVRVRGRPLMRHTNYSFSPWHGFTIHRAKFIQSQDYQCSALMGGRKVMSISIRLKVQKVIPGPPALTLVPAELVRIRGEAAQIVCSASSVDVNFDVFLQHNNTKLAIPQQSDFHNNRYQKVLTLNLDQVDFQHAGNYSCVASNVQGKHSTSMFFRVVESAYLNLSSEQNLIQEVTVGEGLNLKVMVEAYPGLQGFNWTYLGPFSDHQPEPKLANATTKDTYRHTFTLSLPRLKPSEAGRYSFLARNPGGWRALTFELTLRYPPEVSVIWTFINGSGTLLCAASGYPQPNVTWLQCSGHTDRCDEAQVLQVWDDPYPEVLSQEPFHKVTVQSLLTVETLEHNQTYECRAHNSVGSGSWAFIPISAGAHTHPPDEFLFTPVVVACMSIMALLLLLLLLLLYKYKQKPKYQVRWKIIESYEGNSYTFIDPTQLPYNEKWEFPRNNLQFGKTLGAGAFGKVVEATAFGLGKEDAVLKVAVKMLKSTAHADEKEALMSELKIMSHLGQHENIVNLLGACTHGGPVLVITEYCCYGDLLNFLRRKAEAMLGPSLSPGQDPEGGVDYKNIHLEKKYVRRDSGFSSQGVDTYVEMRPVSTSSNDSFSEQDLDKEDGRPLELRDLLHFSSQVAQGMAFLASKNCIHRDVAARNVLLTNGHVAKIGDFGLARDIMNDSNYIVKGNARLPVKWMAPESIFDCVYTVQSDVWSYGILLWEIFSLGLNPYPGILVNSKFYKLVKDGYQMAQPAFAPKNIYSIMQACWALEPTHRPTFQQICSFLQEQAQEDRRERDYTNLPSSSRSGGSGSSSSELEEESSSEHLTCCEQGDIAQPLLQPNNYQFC
ABL1 wt, sequence (P00519 118-535 limits assumed): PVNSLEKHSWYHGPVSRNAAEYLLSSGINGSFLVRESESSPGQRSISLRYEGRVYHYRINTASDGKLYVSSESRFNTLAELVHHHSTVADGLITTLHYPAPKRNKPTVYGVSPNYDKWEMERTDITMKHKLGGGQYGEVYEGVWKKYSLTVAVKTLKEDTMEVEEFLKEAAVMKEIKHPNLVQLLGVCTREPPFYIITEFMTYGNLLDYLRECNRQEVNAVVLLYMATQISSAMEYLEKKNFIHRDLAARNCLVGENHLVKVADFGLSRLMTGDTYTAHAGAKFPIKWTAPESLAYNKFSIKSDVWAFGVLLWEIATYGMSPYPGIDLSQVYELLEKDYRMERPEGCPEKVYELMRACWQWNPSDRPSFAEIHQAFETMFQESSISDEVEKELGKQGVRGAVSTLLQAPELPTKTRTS
RET, sequence (P07949 29-1114 limits assumed): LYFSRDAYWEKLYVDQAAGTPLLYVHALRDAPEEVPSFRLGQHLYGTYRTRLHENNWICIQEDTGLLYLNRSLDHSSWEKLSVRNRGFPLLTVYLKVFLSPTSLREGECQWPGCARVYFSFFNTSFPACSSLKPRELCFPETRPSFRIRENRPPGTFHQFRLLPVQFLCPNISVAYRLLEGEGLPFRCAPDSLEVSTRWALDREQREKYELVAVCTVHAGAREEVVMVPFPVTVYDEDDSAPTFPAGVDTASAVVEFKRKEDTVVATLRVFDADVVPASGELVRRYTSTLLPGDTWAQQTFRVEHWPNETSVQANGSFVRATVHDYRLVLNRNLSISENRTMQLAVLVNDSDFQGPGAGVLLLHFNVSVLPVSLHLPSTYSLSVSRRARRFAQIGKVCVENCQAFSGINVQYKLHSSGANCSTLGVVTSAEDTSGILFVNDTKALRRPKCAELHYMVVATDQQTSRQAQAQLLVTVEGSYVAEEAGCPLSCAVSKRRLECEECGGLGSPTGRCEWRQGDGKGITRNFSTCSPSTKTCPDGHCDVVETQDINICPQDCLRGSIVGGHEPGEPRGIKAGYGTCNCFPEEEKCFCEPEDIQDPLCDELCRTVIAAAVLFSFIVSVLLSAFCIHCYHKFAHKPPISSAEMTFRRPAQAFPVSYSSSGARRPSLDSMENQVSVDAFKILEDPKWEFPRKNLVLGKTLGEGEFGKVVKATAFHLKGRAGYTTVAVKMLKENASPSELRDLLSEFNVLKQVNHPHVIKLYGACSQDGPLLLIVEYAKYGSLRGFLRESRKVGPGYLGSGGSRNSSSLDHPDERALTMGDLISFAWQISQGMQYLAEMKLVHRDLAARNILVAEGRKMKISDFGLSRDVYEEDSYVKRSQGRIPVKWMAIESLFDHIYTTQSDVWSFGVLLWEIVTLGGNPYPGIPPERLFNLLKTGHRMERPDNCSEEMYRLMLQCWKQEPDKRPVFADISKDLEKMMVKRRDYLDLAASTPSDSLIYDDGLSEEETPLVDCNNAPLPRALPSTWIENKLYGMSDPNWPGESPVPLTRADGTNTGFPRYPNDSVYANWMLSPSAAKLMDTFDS

HG-9-91-01
viability of AML cell lines [1]: strongly decreases viability

Cc1nc(Nc2ncc(C(=O)Nc3c(Cl)ccnc3C)s2)cc(N2CCN(C)CC2)n1 [Compound C10]
IC50 [2]: 4.3 nM | IC50 [3]: < 1.5 nM | IC50 ([4]; read-out: SIK3 IC50): 493 nM | IC50 [5]: 138 nM

Cc1nc(Nc2ncc(C(=O)Nc3c(Cl)ccnc3C)s2)cc(N2CCN(CCO)CC2)n1 [Compound B3, N-(4-chloro-2-methylpyridin-3-yl)-2-((6-(4-(2-hydroxyethyl)piperazin-1-yl)-2-methylpyrimidin-4-yl)amino)thiazole-5-carboxamide]
CSF1R residual activity [6]: less than 1% | HCK residual activity [7]: less than 1% | Human liver microsomal stability, Intrinsic clearance [8]: 24 µL/min/mg | Mouse liver microsomal stability, Intrinsic clearance (L/min/mg) [9]: 22 µL/min/mg | Plasma concentration after 6 h [10]: 29 nM | % AUCextrap, Total ([11]; male, CD1, mouse): 14% | AUC(0-inf) [12]: 0.697 µM·h | half-life [13]: 0.967 h | half-life [14]: 1.03 h | Papp ([15]; Mean Papp A > B (10^−6 cm/s)): 6.8 ×10⁻⁶ cm/s | Papp ([15]; Mean Papp B > B (10^−6 cm/s)): 20 ×10⁻⁶ cm/s | Papp [16]: 20 ×10⁻⁶ cm/s | Papp ([16]; Mean Papp A > B (10^−6 cm/s)): < 0.8 ×10⁻⁶ cm/s | remaining activity at 1 µM [17]: ~100% | remaining activity at 1 µM [18]: ~50% | Human plasma-protein binding, Percentage unbound (%) ([19]; Table 5A): 7% | Human plasma-protein binding, Percentage unbound (%) ([19]; Table 5.1A): 7% | Murine plasma protein binding, Percentage unbound (%) ([20]; Table 5A): 11% | Murine plasma protein binding, Percentage unbound (%) ([20]; Table 5.1A): 11% | half-life ([21]; iv, 1 mg/kg): 0.2 h | half-life ([21]; po, 30 mg/kg): 2.4 h | Cmax (ng/ml), Total ([21]; mouse, in vivo): 99 ng/mL | t1/2 (h), Free ([21]; mouse, in vivo): 2.4 h | concentration at 2 h ([22]; CD1, mouse, plasma, po, 30 mg/kg, Free concentration (nM) at 2 hours, mice, 30 mg/kg po, 2 hours): 13 nM | concentration at 7 h ([22]; CD1, mouse, plasma, po, 30 mg/kg, Free concentration (nM) at 7 hours, mice, 30 mg/kg po, 7 hours): 3 nM | Cmax at 2 h ([22]; mouse, plasma, po, 30 mg/kg): 56 ng/mL

Cc1nc(Nc2ncc(C(=O)Nc3c(C(F)F)csc3Cl)s2)cc(N2CCN(CCO)CC2)n1 [Compound E4, N-(2-chloro-4-(difluoromethyl)thiophen-3-yl)-2-((6-(4-(2-hydroxyethyl)piperazin-1-yl)-2-methylpyrimidin-4-yl)amino)thiazole-5-carboxamide]
CSF1R residual activity [6]: less than 1% | HCK residual activity [7]: less than 1% | half-life ([23]; read-out: Human hepatocyte stability, Half-life): 1.07 h | microsomal CLint ([23]; read-out: Human hepatocyte stability, Intrinsic clearance): 22 µL/min/mg | half-life ([23]; read-out: half-life in the presence of human hepatocytes (converted)): ~1 h | half-life [24]: 1.3 h | microsomal CLint ([24]; read-out: Mouse hepatocyte stability, Intrinsic clearance): 18 µL/min/mg | GI50 [25]: < 7.5 nM | GI50 [26]: < 750 nM | TNF-mediated killing in SIK3 WT vs KO MC38 clones [27]: induced TNF-mediated killing only in SIK3 WT clones | SIK3 IC50 (nM), relative to C7 ([4]; fold of the value of compound C7 (C7 = 1×)): 0.6× | % AUCextrap, Free ([11]; male, CD1, mouse): 0.31% | % AUCextrap, Total ([11]; male, CD1, mouse): 0.31% | AUCinf (nM*h), Free ([11]; male, CD1, mouse): 148.39 nM·h | AUClast (nM*h), Free ([11]; male, CD1, mouse): 147.93 nM·h | Rsq, Free ([11]; mouse): 0.90 | Rsq, Total ([11]; mouse): 0.90 | DLT@BID dosing [28]: 60 to 80 mg/kg | DLT@QD dosing [28]: n.d. @80 mg/kg | HRD in vivo @BID [28]: 33 mg/kg | HRD in vivo @QD [28]: 80 mg/kg | AUC(0-inf) [12]: 5.5 µM·h | AUC(0-t) [12]: 5.48 µM·h | Cmax [12]: 1240 ng/mL | MRT last [12]: 5.88 h | Tmax [12]: 2 h | half-life [12]: 4.49 h | half-life [13]: 0.367 h | microsomal CLint [13]: 65 µL/min/mg | half-life [14]: 0.333 h | microsomal CLint [14]: 70 µL/min/mg | IC50 [29]: < 20 nM | IC50 ([30]; read-out: Kinase: IC50 (nM) SIK3): < 20 nM | Human plasma-protein binding, Percentage unbound (%) ([19]; Table 5.1A): <1% | recovery at 4 h ([19]; human, plasma): 77% | Murine plasma protein binding, Percentage unbound (%) ([20]; Table 5.1A): 2% | recovery at 4 h ([20]; mouse, plasma): 80% | Papp ([31]; MDCK-MDR1): 3 ×10⁻⁶ cm/s | efflux ratio ([31]; MDCK-MDR1, MDCK-MDR1 cells, Mean Efflux Ratio (MDR1)): 40 to 50 | efflux ratio ([31]; MDCK-MDR1, P-gP driven efflux ratio (MDR1/wt)): 11 | MDCK-MDR1 cells, Mean Efflux Ratio (MDR1) [32]: 43 | Papp [33]: 5 ×10⁻⁶ cm/s | efflux ratio [33]: 4.1 | fold increase of concentration at 6 h compared to dasatinib ([22]; mice, 30 mg/kg po, 6 h): 3 fold | fold improvement of free serum concentration over C7 ([22]; mouse, in vivo): 5 fold | fold improvement of total serum concentration over C7 ([22]; mouse, in vivo): 9.6 fold | Cmax at 2 h ([22]; mouse, plasma, po, 30 mg/kg): 1210 ng/mL | concentration at 6 h ([22]; mouse, plasma, po, 30 mg/kg, Free plasma concentration after 6 h (nM), mice, 30 mg/kg po, 6 h): 17.9 nM | concentration at 6 h ([22]; mouse, plasma, po, 30 mg/kg, Plasma concentration after 6 h (nM), mice, 30 mg/kg po, 6 h): 662 nM | AUC0-last (nM*h), relative to C7 [22, 42]: 4.7× | C max (ng/ml), relative to C7 [22, 42]: 2.6× | MRT0-last (h), relative to C7 [22, 42]: 2× | t1/2 (h), relative to C7 [22, 42]: 3.2× | quinone-imine reactive metabolite [34]: not observed | Body weight increase (%) [35]: 12.0% | Non-treatment related death [35]: 3/16 | Tumour growth inhibition (%) [35]: 64% | Inhibition of HDAC4 phosphorylation [36]: ++ | IC50 [37]: < 100 nM | EC50 ([37]; MC-38, read-out: mean EC50 of sensitising MC38 tumour cells to TNF-mediated killing): < 100 nM | IC50 [38]: < 100 nM | Inhibition of NFKB activity (PANC-1) [39]: ++ | Inhibition of NFKB activity (MC38) [40]: ++

Cc1nc(Nc2ncc(C(=O)Nc3c(C(F)F)csc3Cl)s2)cc(N2CCN(C)C(C)C2)n1 (racemic) [Compound E16, N-(2-chloro-4-(difluoromethyl)thiophen-3-yl)-2-((2-methyl-6-(3,4-dimethylpiperazin-1-yl)pyrimidin-4-yl)amino)thiazole-5-carboxamide]
IC50 [29]: < 20 nM | IC50 [30]: 20 to 50 nM | IC50 [37]: < 100 nM | IC50 [38]: < 100 nM | IC50 [41]: < 100 nM
